From patent US20100168228A1, “NOVEL CHEMOTHERAPEUTIC AGENTS AGAINST INFLAMMATION AND CANCER” (RELIANCE LIFE SCIENCES PVT. LTD., priority 2006, published 2010) come the findings set out here.

Type in all cases: cell-based, human
Test [1] deals with Jurkat cells. The test is described as follows: Nuclear staining assay (propidium iodide), Jurkat. The conditions noted are these: 24 h. The procedure: Nuclear staining assay: After treatment with the compound for 24 h, Jurkat cells were washed once with ice-cold EDTA/PBS (5 mM) and fixed with 70% ethanol for 1 h at RT. Fixed cells were placed on slides and stained with PI (5 μg/ml) with RNase A (1 mg/ml) for 20 mins. After decolourization with water, nuclear morphology of cells was examined by fluorescence microscopy.

The test system of test [2] is NF-κB. The test is described as follows: NF-κB activation assay, MCF-7. Particulars: MCF-7, 15 μM 3 h, 0.1 nM TNF 30 min. The procedure:
FIG. 4: Effect of CAMVE on NF-κB activation in different cell lines. A. HeLa, MCF-7, U937, were incubated at 37° C. for 3 h with 15 μM dose of CAMVE and then stimulated with 0.1 nM TNF for 30 min. After these treatments, nuclear extracts were prepared and assayed for NF-κB using BD Transfactor ELISA method. B. RAW 264.7 cells pretreated with indicated doses of CAMVE were stimulated with 100 ng/ml LPS for 30 min and assayed for NF-κB activation.
Cell pellet was resuspended in lysis buffer (10 mM HEPES, pH 7.9, 1.5 mM MgCl2, 10 mM KCl, 1 mM PMSF, 1 mMDTT, 0.5% NP 40, 0.1 mM EGTA and 0.1 mM EDTA) and allowed to swell on ice for 15 min, followed by centrifugation at 3300×g for 20 min. The cell pellet was resuspended in a volume of lysis buffer equal to the cell pellet volume. The cell suspension was slowly drawn down into a syringe and ejected the content in a single stroke. Disrupted cells were incubated for 15 min on ice, and the disrupted cell suspension was centrifuged at 10,000×g for 20 min at 4° C. […]
The assay was performed by using wells coated with oligonucleotides having the consensus DNA binding sites for the specific transcription factors. […] Bound transcription factor was detected by a specific Primary Antibody. […] After addition of the substrate, the Absorbance was recorded at 655 nm.

Test [3] concerns p65. The test can be described thus: Nuclear translocation of p65 NF-kB by immunocytochemistry, HeLa. The conditions noted are these: 15 μM 3 h, 0.1 nM TNF. The procedure:
FIG. 5: Effect of CAMVE on TNF or LPS induced nuclear translocation of p65. A. HeLa cells either untreated or pretreated with 15 μM CAMVE for 3 h at 37° C. were stimulated with 0.1 nM TNF and immunocytochemical analysis were performed as described in “Materials and Methods”. B. Jurkat (5×10^5 cells/ml) cells were pretreated with indicated concentrations of CAMVE for 3 h and then stimulated with 0.1 nM of TNF for 30 min or 100 ng/ml of SA-LPS (serum activated LPS) for 15 min. After these treatments, cells were washed twice with PBS and nuclei were isolated by incubating the cells with […] Pipes-Triton buffer for 30 min at 4° C. Nuclei were stained for p65 and analyzed using FACS. (i). Representative histogram overlay showing TNF or LPS stimulated (1), basal (2), CAMVE stimulated (3), p65 staining in the nucleus. (ii). Ordinates gives the Isotype-corrected MFI for various treatments.
Hela cells grown on cover slips were washed with 0.1M potassium phosphate buffer (pH 7.4) and fixed with 4% formaldehyde in 0.1M potassium phosphate buffer (pH 7.4) for 1 h at room temperature. The cells were permeabilized with 0.1% Triton X-100 in PBS for 1 h. […] After counterstaining for nuclei with DAPI or Hoechst for 5 mins slides were analyzed under a fluorescence microscope (Labophot-2. Nikon, Tokyo, Japan).

The test system of test [4] is Jurkat cells. The test can be described thus: Measurement of reactive oxygen intermediates (ROI) by flow cytometry. Particulars: pretreated 1 h, TNF 1 nM 4 h. The procedure: The production of ROI in cells treated with TNFα or LPS was determined by flow cytometer as described by (Manna, S. K. et. al., J. Immunol. (1999) 162(3):1510-1518). Briefly Jurkat cells (5×10^5 cells in one ml) were incubated either with RPMI 1640 medium supplemented with 10% FBS or with complete media containing different concentrations of CAMVE for 1 h at 37° C. Cells were then stimulated with 1 nM of TNF for 4 h. After incubation, the cells were washed with D-PBS, and resuspended in 1 ml D-PBS. To detect ROI production, cells were exposed to Dihydrorhodamine 123 (5 mM stock) at a final concentration of 1 μM for 1 hr at 37° C. with moderate shaking (100 rpm) and then washed with D-PBS three times and resuspended in 1 ml of D-PBS. Rhodamine 123 fluorescence intensity resulting from Dihydrorhodamine 123 oxidation was measured by FACS Calibur (Becton Dickinson) with excitation at 488 nm and was detected between […]. Data was analyzed using Cell Quest software (Becton Dickinson).
For orientation: A flow cytometer gives signals particle by particle.

Test [5] deals with NF-κB. The test can be described thus: NF-κB activation assay (Transfactor ELISA on nuclear extracts), Jurkat. Particulars: pretreated 3 h. Here is the method:
Cell pellet was resuspended in lysis buffer (10 mM HEPES, pH 7.9, 1.5 mM MgCl2, 10 mM KCl, 1 mM PMSF, 1 mMDTT, 0.5% NP 40, 0.1 mM EGTA and 0.1 mM EDTA) and allowed to swell on ice for 15 min, followed by centrifugation at 3300×g for 20 min. The cell pellet was resuspended in a volume of lysis buffer equal to the cell pellet volume. The cell suspension was slowly drawn down into a syringe and ejected the content in a single stroke. Disrupted cells were incubated for 15 min on ice, and the disrupted cell suspension was centrifuged at 10,000×g for 20 min at 4° C. Nuclear pellet was resuspended in a volume of extraction buffer (20 mM HEPES; pH 7.9, 25% glycerol, 1.5 mM MgCl2, 420 mM NaCl, 0.1 mM EDTA, 0.1 mM EGTA, 1 mM PMSF and 1 mM DTT) and incubated on ice for 30 min. The nuclear suspension was centrifuged at 21,000×g for 15 min at 4° C. and the supernatant was collected as nuclear extract and stored at −70° C. Protein concentration was estimated using standard Bradford method.
To determine NF-κB activation, transcription profiling was done with the BD Mercury Transfactor kit obtained from BD Biosciences. This method provides rapid, high-throughput detection of specific transcription factors eg NFκB in the nuclear extract. Using an enzyme-linked immunosorbent assay (ELISA)-based format, the Transcription Factor kit detects the DNA binding by specific transcription factors.
The assay was performed by using wells coated with oligonucleotides having the consensus DNA binding sites for the specific transcription factors. 50 μg of the nuclear extract proteins were incubated in the wells precoated with their specific oligonucletides, and allowed the activated NFκB to bind to their consensus sequence. Bound transcription factor was detected by a specific Primary Antibody. A horseradish peroxidase conjugated Secondary Antibody was then used to detect the bound Primary Antibody. After addition of the substrate, the Absorbance was recorded at 655 nm. […]
(In an ELISA, binding on a coated surface is turned into a signal by an enzyme label.)

As for `COc1cc([C@@H]2Oc3c(OC)cc(/C=C/C(=O)O)cc3[C@H]2C(=O)O)ccc1O` [compound 27, 5-[(E)-2-carboxyvinyl]-2β-(4-hydroxy-3-methoxyphenyl)-7-methoxy-2,3-dihydro-1-benzofuran-3α-carboxylic acid], the “nuclear morphology after propidium iodide staining” value in test [1] is listed as “typical apoptotic nuclei”.
As for `COC(=O)c1ccc(OC(=O)/C=C/c2ccc(O)c(O)c2)c(OC)c1` [compound 1, Methyl 4-{[(2E)-3-(3,4-dihydroxyphenyl)prop-2-enoyl]oxy}-3-methoxybenzoate], in test [2], the “TNF-induced NF-κB activation” value is listed as “blocks TNF-induced NF-κB activation”. Besides, in test [3], the “TNF induced p65 nuclear translocation (immunofluorescence)” value is reported as “did not show p65 signal”. Moreover, the “TNF induced ROI generation” value in test [4] was “suppressed on pretreatment of cells with CAMVE in a dose dependent fashion”. Moreover, in test [5] (0.1 nM TNF 30 min), the “TNF induced NF-κB activation” value was “inhibited this activation in a concentration dependent manner” and the “concentration of maximum inhibition of TNF induced NF-κB activation” value is 15 µM. In test [5] (100 ng/ml SA-LPS 30 min), the “LPS induced NF-κB activation” value is listed as “blocked by CAMVE”.
